Measured values from US6737383B1, “Herbicidal oxadiazolidines” (priority 1999, dated 2004).

Tests used:
cocklebur = assay: Test B pre/postemergence cocklebur; assay type: in vivo, Xanthium strumarium
In short: (§1)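 Response is a visual 0-to-10 score relative to untreated plants, where 0 means no effect and 10 means complete control, taken twelve to sixteen days after application. Treatments went onto soil at planting and onto foliage of 1- to 4-leaf plants, using a surfactant-containing non-phytotoxic solvent.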

purple nutsedge = assay: Test B pre/postemergence purple nutsedge; assay type: in vivo, Cyperus rotundus
In short: as §1

surinam grass = assay: Test B pre/postemergence surinam grass; assay type: in vivo, Brachiaria decumbens
In short: as §1

wheat = assay: Test B pre/postemergence wheat; assay type: in vivo, Triticum aestivum
In short: as §1

velvetleaf = assay: Test B pre/postemergence velvetleaf; assay type: in vivo, Abutilon theophrasti
In short: as §1

bedstraw = assay: Test B pre/postemergence bedstraw; assay type: in vivo, Galium aparine; conditions: Rate 62 g/ha
In short: as §1

sugar beet = assay: Test B pre/postemergence sugar beet; assay type: in vivo, Beta vulgaris
In short: as §1

blackgrass = assay: Test B pre/postemergence blackgrass; assay type: in vivo, Alopecurus myosuroides
In short: as §1

rape = assay: Test B pre/postemergence rape; assay type: in vivo, Brassica napus
In short: as §1

morningglory = assay: Test B pre/postemergence morningglory; assay type: in vivo, Ipomoea hederacea
In short: as §1

corn = assay: Test B pre/postemergence corn; assay type: in vivo, Zea mays
In short: as §1

giant foxtail = assay: Test B pre/postemergence giant foxtail; assay type: in vivo, Setaria faberii
In short: as §1

soybean = assay: Test B pre/postemergence soybean; assay type: in vivo, Glycine max
In short: as §1

crabgrass = assay: Test B pre/postemergence crabgrass; assay type: in vivo, Digitaria sanguinalis
In short: as §1

wild oat = assay: Test B pre/postemergence wild oat; assay type: in vivo, Avena fatua
In short: as §1

pigweed = assay: Test B pre/postemergence pigweed; assay type: in vivo, Amaranthus retroflexus
In short: as §1

[1] = Postemergence, Rate 62 g/ha, scale of 0 to 10, 0 is no effect, 10 is complete control
[2] = Postemergence, Rate 125 g/ha, scale 0 to 10, 0 is no effect, 10 is complete control
[3] = Postemergence, Rate 500 g/ha, scale 0 to 10, 0 is no effect, 10 is complete control
[4] = Preemergence, Rate 62 g/ha, scale of 0 to 10 where 0 is no effect and 10 is complete control
[5] = Preemergence, Rate 125 g/ha, scale 0 to 10, 0 is no effect, 10 is complete control
[6] = Preemergence, Rate 500 g/ha, scale of 0 to 10 where 0 is no effect and 10 is complete control
[7] = Rate 250 g/ha, Postemergence, scale of 0 to 10 where 0 is no effect and 10 is complete control

CCCCn1c(=O)on(C(=O)N(c2ccc(Cl)cc2)C(C)C)c1=O [Compound 527]
Cocklebur plant response rating (cocklebur; [1]): 0 | Cocklebur plant response rating (cocklebur; [2]): 0 | Plant response rating, Cocklebur (cocklebur; [3]): 2 | Plant response rating, Cocklebur (cocklebur; [4]): 0 | Cocklebur plant response rating (cocklebur; [5]): 0 | Cocklebur plant response rating (0 to 10 scale) (cocklebur; Preemergence, Rate 250 g/ha): 0 | Cocklebur plant response rating (cocklebur; [6]): 3 | Plant response rating, Cocklebur (cocklebur; [7]): 2 | Nutsedge plant response rating (purple nutsedge; [1]): 0 | Plant response rating, Nutsedge (purple nutsedge; [4]): 0 | Nutsedge plant response rating (purple nutsedge; [5]): 0 | Nutsedge plant response rating (0 to 10 scale) (purple nutsedge; Preemergence, Rate 250 g/ha): 0 | Nutsedge plant response rating (purple nutsedge; [6]): 0 | Plant response rating, Nutsedge (purple nutsedge; [7]): 0 | B. signalgrass plant response rating (surinam grass; [1]): 0 | B. signalgrass plant response rating (surinam grass; [2]): 0 | Plant response rating, B. signalgrass (surinam grass; [3]): 9 | Plant response rating, B. signalgrass (surinam grass; [4]): 2 | B. signalgrass plant response rating (surinam grass; [5]): 2 | B. signalgrass plant response rating (0 to 10 scale, 0 is no effect, 10 is complete control) (surinam grass; Preemergence, Rate 250 g/ha): 4 | Plant response rating, B. signalgrass (surinam grass; [7]): 0 | Wheat plant response rating (wheat; [1]): 0 | Wheat plant response rating (wheat; [2]): 0 | Plant response rating, Wheat (wheat; [3]): 0 | Plant response rating, Wheat (wheat; [4]): 0 | Wheat plant response rating (wheat; [5]): 0 | Wheat plant response rating (0 to 10 scale) (wheat; Preemergence, Rate 250 g/ha): 0 | Plant response rating, Wheat (wheat; [7]): 0 | Velvetleaf plant response rating (velvetleaf; [1]): 3 | Velvetleaf plant response rating (velvetleaf; [2]): 2 | Plant response rating, Velvetleaf (velvetleaf; [3]): 3 | Plant response rating, Velvetleaf (velvetleaf; [4]): 0 | Velvetleaf plant response rating (velvetleaf; [5]): 2 | Velvetleaf plant response rating (0 to 10 scale) (velvetleaf; Preemergence, Rate 250 g/ha): 2 | Velvetleaf plant response rating (velvetleaf; [6]): 2 | Plant response rating, Velvetleaf (velvetleaf; [7]): 3 | Bedstraw plant response rating (bedstraw; Postemergence, scale of 0 to 10, 0 is no effect, 10 is complete control): 0 | Plant response rating, Bedstraw (bedstraw; Preemergence, scale of 0 to 10 where 0 is no effect and 10 is complete control): 0 | Sugarbeets plant response rating (sugar beet; [1]): 0 | Sugarbeets plant response rating (sugar beet; [2]): 0 | Plant response rating, Sugarbeets (sugar beet; [3]): 2 | Plant response rating, Sugarbeets (sugar beet; [4]): 0 | Sugarbeets plant response rating (sugar beet; [5]): 6 | Sugarbeets plant response rating (0 to 10 scale) (sugar beet; Preemergence, Rate 250 g/ha): 6 | Sugarbeets plant response rating (sugar beet; [6]): 6 | Plant response rating, Sugarbeets (sugar beet; [7]): 0 | Blackgrass plant response rating (blackgrass; [1]): 0 | Blackgrass plant response rating (blackgrass; [2]): 3 | Plant response rating, Blackgrass (blackgrass; [3]): 7 | Plant response rating, Blackgrass (blackgrass; [4]): 0 | Blackgrass plant response rating (blackgrass; [5]): 2 | Blackgrass plant response rating (0 to 10 scale) (blackgrass; Preemergence, Rate 250 g/ha): 2 | Plant response rating, Blackgrass (blackgrass; [7]): 4 | Rape plant response rating (rape; [1]): 0 | Rape plant response rating (rape; [2]): 0 | Plant response rating, Rape (rape; [3]): 2 | Plant response rating, Rape (rape; [4]): 0 | Rape plant response rating (rape; [5]): 2 | Rape plant response rating (0 to 10 scale) (rape; Preemergence, Rate 250 g/ha): 2 | Plant response rating, Rape (rape; [7]): 0 | Morningglory plant response rating (morningglory; [1]): 3 | Morningglory plant response rating (morningglory; [2]): 3 | Plant response rating, Morningglory (morningglory; [3]): 6 | Plant response rating, Morningglory (morningglory; [4]): 0 | Morningglory plant response rating (morningglory; [5]): 0 | Morningglory plant response rating (0 to 10 scale) (morningglory; Preemergence, Rate 250 g/ha): 0 | Morningglory plant response rating (morningglory; [6]): 2 | Plant response rating, Morningglory (morningglory; [7]): 5 | Corn plant response rating (corn; [1]): 0 | Corn plant response rating (corn; [2]): 0 | Plant response rating, Corn (corn; [3]): 0 | Plant response rating, Corn (corn; [4]): 0 | Corn plant response rating (corn; [5]): 0 | Corn plant response rating (0 to 10 scale) (corn; Preemergence, Rate 250 g/ha): 0 | Corn plant response rating (corn; [6]): 0 | Plant response rating, Corn (corn; [7]): 0 | Giant foxtail plant response rating (giant foxtail; [1]): 5 | Giant foxtail plant response rating (giant foxtail; [2]): 8 | Plant response rating, Giant foxtail (giant foxtail; [3]): 9 | Plant response rating, Giant foxtail (giant foxtail; [4]): 9 | Giant foxtail plant response rating (giant foxtail; [5]): 10 | Giant foxtail plant response rating (0 to 10 scale) (giant foxtail; Preemergence, Rate 250 g/ha): 10 | Giant foxtail plant response rating (giant foxtail; [6]): 10 | Plant response rating, Giant foxtail (giant foxtail; [7]): 8 | Soybean plant response rating (soybean; [1]): 3 | Soybean plant response rating (soybean; [2]): 4 | Plant response rating, Soybean (soybean; [3]): 5 | Plant response rating, Soybean (soybean; [4]): 0 | Soybean plant response rating (soybean; [5]): 0 | Soybean plant response rating (0 to 10 scale) (soybean; Preemergence, Rate 250 g/ha): 0 | Soybean plant response rating (soybean; [6]): 0 | Plant response rating, Soybean (soybean; [7]): 4 | Crabgrass plant response rating (crabgrass; [1]): 4 | Crabgrass plant response rating (crabgrass; [2]): 4 | Plant response rating, Crabgrass (crabgrass; [3]): 10 | Plant response rating, Crabgrass (crabgrass; [4]): 9 | Crabgrass plant response rating (crabgrass; [5]): 10 | Crabgrass plant response rating (0 to 10 scale) (crabgrass; Preemergence, Rate 250 g/ha): 10 | Crabgrass plant response rating (crabgrass; [6]): 10 | Plant response rating, Crabgrass (crabgrass; [7]): 9 | Wild oats plant response rating (wild oat; [1]): 0 | Wild oats plant response rating (wild oat; [2]): 0 | Plant response rating, Wild oats (wild oat; [3]): 0 | Plant response rating, Wild oats (wild oat; [4]): 0 | Wild oats plant response rating (wild oat; [5]): 0 | Wild oats plant response rating (0 to 10 scale) (wild oat; Preemergence, Rate 250 g/ha): 3 | Plant response rating, Wild oats (wild oat; [7]): 0 | Redroot pigweed plant response rating (pigweed; [1]): 0 | Redroot pigweed plant response rating (pigweed; [2]): 0 | Plant response rating, Redroot pigweed (pigweed; [3]): 0 | Plant response rating, Redroot pigweed (pigweed; [4]): 0 | Redroot pigweed plant response rating (pigweed; [5]): 4 | Redroot pigweed plant response rating (0 to 10 scale) (pigweed; Preemergence, Rate 250 g/ha): 4 | Redroot pigweed plant response rating (pigweed; [6]): 4 | Plant response rating, Redroot pigweed (pigweed; [7]): 0
